# Tested on: 958767-090-R-J1-PDC spheroid growth
# Assay: Anticancer human tumor 958767-090-R-J1-PDC patient-derived head and neck squamous carcinoma cell line growth inhibition [IpAb]
# Settings: spheroids with HUVEC and MSC; for IC50: curve of first compound; for viability, T/C: stronger effect = lower value
# In short: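 Multi-cell spheroids of 60% tumour cells, 25% HUVEC and 15% MSC in ultra-low-attachment U-bottom wells, treated with agents combined with ipatasertib or abemaciclib. Half-log ranges top out near clinical Cmax, or 10 microM when Cmax is unknown.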
# [1] = second compound 0.01 µM, first compound 0.0316 µM
# [2] = second compound 0.01 µM, first compound 0.1 µM
# [3] = second compound 0.01 µM, first compound 0.316 µM
# [4] = second compound 0.01 µM, first compound 1 µM
# [5] = second compound 0.0316 µM, first compound 0.0316 µM
# [6] = second compound 0.0316 µM, first compound 0.1 µM
# [7] = second compound 0.0316 µM, first compound 0.316 µM
# [8] = second compound 0.0316 µM, first compound 1 µM
# [9] = second compound 0.1 µM, first compound 0.0316 µM
# [10] = second compound 0.1 µM, first compound 0.1 µM
# [11] = second compound 0.1 µM, first compound 0.316 µM
# [12] = second compound 0.1 µM, first compound 1 µM
# [13] = second compound 0.316 µM, first compound 0.0316 µM
# [14] = second compound 0.316 µM, first compound 0.1 µM
# [15] = second compound 0.316 µM, first compound 0.316 µM
# [16] = second compound 0.316 µM, first compound 1 µM
# [17] = second compound 1 µM, first compound 0.0316 µM
# [18] = second compound 1 µM, first compound 0.1 µM
# [19] = second compound 1 µM, first compound 0.316 µM
# [20] = second compound 1 µM, first compound 1 µM
# 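Also: spheroids exposed to agents for 7 days.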
# 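For viability, T/C in this document: 100% = DMSO vehicle control wells.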
SMILES,IC50 (second compound 0.01 µM) [µM],IC50 (second compound 0.0316 µM) [µM],IC50 (second compound 0.1 µM) [µM],IC50 (second compound 0.316 µM) [µM],IC50 (second compound 1 µM) [µM],"viability, T/C [1] [%]","viability, T/C [2] [%]","viability, T/C [3] [%]","viability, T/C [4] [%]","viability, T/C [5] [%]","viability, T/C [6] [%]","viability, T/C [7] [%]","viability, T/C [8] [%]","viability, T/C [9] [%]","viability, T/C [10] [%]","viability, T/C [11] [%]","viability, T/C [12] [%]","viability, T/C [13] [%]","viability, T/C [14] [%]","viability, T/C [15] [%]",further results
C=CC(=O)N1CCN(c2nc(=O)n(-c3c(C)ccnc3C(C)C)c3nc(-c4c(O)cccc4F)c(F)cc23)C(C)C1 (stereo not given) + CCN1CCN(Cc2ccc(Nc3ncc(F)c(-c4cc(F)c5nc(C)n(C(C)C)c5c4)n3)nc2)CC1,8.41,7.73,8.02,8.18,9.88,96.3,84.9,94.4,94.8,82.4,84.8,90.7,92.3,72.2,70.2,75.1,94.2,77,55.1,72.5,"viability, T/C (second compound 0.01 µM, first compound 3.16 µM): 81.9%; viability, T/C (second compound 0.01 µM, first compound 10 µM): 44.3%; viability, T/C (second compound 0.0316 µM, first compound 3.16 µM): 83.5%; viability, T/C (second compound 0.0316 µM, first compound 10 µM): 40%; viability, T/C (second compound 0.1 µM, first compound 3.16 µM): 81.4%; viability, T/C (second compound 0.1 µM, first compound 10 µM): 43.3%; viability, T/C [16]: 94.1%; viability, T/C (second compound 0.316 µM, first compound 3.16 µM): 75.9%; viability, T/C (second compound 0.316 µM, first compound 10 µM): 44.9%; viability, T/C [17]: 89.7%; viability, T/C [18]: 82.4%; viability, T/C [19]: 94.6%; viability, T/C [20]: 96.1%; viability, T/C (second compound 1 µM, first compound 3.16 µM): 87.7%; viability, T/C (second compound 1 µM, first compound 10 µM): 49.5%"
COc1c(OCCCN2CCOCC2)ccc2c3n(c(=NC(=O)c4cnc(N)nc4)nc12)CCN3 + CCN1CCN(Cc2ccc(Nc3ncc(F)c(-c4cc(F)c5nc(C)n(C(C)C)c5c4)n3)nc2)CC1,0.00795,0.00866,< 0.00316,0.00434,0.013,31.5,12.7,6.31,3.91,28.5,17,5.97,5.05,22.5,15.9,7.66,6.13,22.9,19.4,8.1,"viability, T/C (second compound 0.01 µM, first compound 0.00316 µM): 64.5%; viability, T/C (second compound 0.01 µM, first compound 0.01 µM): 44.5%; viability, T/C (second compound 0.0316 µM, first compound 0.00316 µM): 62.6%; viability, T/C (second compound 0.0316 µM, first compound 0.01 µM): 48.8%; viability, T/C (second compound 0.1 µM, first compound 0.00316 µM): 44.3%; viability, T/C (second compound 0.1 µM, first compound 0.01 µM): 39.5%; viability, T/C (second compound 0.316 µM, first compound 0.00316 µM): 53%; viability, T/C (second compound 0.316 µM, first compound 0.01 µM): 42.6%; viability, T/C [16]: 7.06%; viability, T/C (second compound 1 µM, first compound 0.00316 µM): 74.1%; viability, T/C (second compound 1 µM, first compound 0.01 µM): 53.5%; viability, T/C [17]: 37%; viability, T/C [18]: 26.9%; viability, T/C [19]: 14.7%; viability, T/C [20]: 12.4%"

# Reference: PubChem BioAssay AID2060336 (Molecular Pharmacology Branch, DTP, NCI, 2025)
